Reference: ChEMBL document CHEMBL1201862, “PubChem BioAssay data set” (2004)
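These data come from cells grown in 96-well plates and exposed to compound for 48 hours at five concentrations. Abbreviation: GI50, concentration required for 50% inhibition of growth.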 Activity calls are given as the source filed them. Cut-off read from the data, not from the text of the source: active = GI50 up to about 1.1 µM and inactive = higher.

Key:
Test in all cases: growth of human tumour cells (NCI), 48 h
[1] = system: 786-0
[2] = system: HCT-15
[3] = system: HL-60
[4] = system: HOP-62
[5] = system: IGROV-1
[6] = system: KM12
[7] = system: MOLT-4
[8] = system: NCI-H23
[9] = system: NCI-H460
[10] = system: NCI-H522
[11] = system: OVCAR-3
[12] = system: RPMI-8226
[13] = system: SF-295
[14] = system: SNB-19
[15] = system: UACC-62
[16] = system: UO-31
[17] = system: RXF 393

Structure (SMILES)	GI50 [1]	GI50 [2] [µM]	GI50 [3]	GI50 [4]	GI50 [5]	GI50 [6]	GI50 [7]	GI50 [8]	GI50 [9]	GI50 [10]	GI50 [11]	GI50 [12]	GI50 [13]	GI50 [14]	GI50 [15]	GI50 [16]	GI50 [17]
O=C1OC(=O)C2C1C1C(c3ccccc3)=C(c3ccccc3)C2(O)C2C(=O)OC(=O)C12 (stereo not given)	92.3 µM (inactive)	> 100	> 10 µM (inactive)	> 100 µM (inactive)	> 100 µM (inactive)	> 100 µM (inactive)	32.5 µM (inactive)	65.3 µM (inactive)	> 100 µM (inactive)	68.7 µM (inactive)	> 100 µM (inactive)	38.6 µM (inactive)	> 100 µM (inactive)	> 100 µM (inactive)	> 100 µM (inactive)	> 100 µM (inactive)	–
O=C1C=CC(=O)c2c1ccc1c3ccccc3n(-c3ccccn3)c21	15.2 µM (inactive)	19.1	3.5 µM (inactive)	–	–	> 100 µM (inactive)	4.8 µM (inactive)	36.6 µM (inactive)	> 100 µM (inactive)	4.15 µM (inactive)	24.7 µM (inactive)	25.6 µM (inactive)	> 100 µM (inactive)	–	–	19.1 µM (inactive)	–
CN(C)c1ccc(/C=N\N2C(=O)c3ccccc3C2=O)cc1	> 100 µM (inactive)	> 100	> 100 µM (inactive)	> 100 µM (inactive)	> 100 µM (inactive)	> 100 µM (inactive)	> 100 µM (inactive)	> 100 µM (inactive)	> 100 µM (inactive)	–	> 100 µM (inactive)	> 100 µM (inactive)	> 100 µM (inactive)	> 100 µM (inactive)	> 100 µM (inactive)	> 100 µM (inactive)	> 100 µM (inactive)
C[C@]12Cc3conc3C(O)=C1CC[C@@H]1C2CC[C@@]2(C)C1CC[C@]2(C)O (stereo not given in full)	22.7 µM (inactive)	10.7	2.09 µM (inactive)	22.9 µM (inactive)	19 µM (inactive)	13.7 µM (inactive)	15.2 µM (inactive)	19.5 µM (inactive)	13.6 µM (inactive)	–	18.4 µM (inactive)	2.87 µM (inactive)	19.1 µM (inactive)	25.3 µM (inactive)	10.4 µM (inactive)	16 µM (inactive)	18.9 µM (inactive)
COC(=O)CCC(=O)CC(=O)C(=O)Nc1ccc(F)cc1	> 100 µM (inactive)	> 100	–	> 100 µM (inactive)	> 100 µM (inactive)	> 100 µM (inactive)	> 100 µM (inactive)	> 100 µM (inactive)	> 100 µM (inactive)	> 100 µM (inactive)	> 100 µM (inactive)	> 100 µM (inactive)	–	> 100 µM (inactive)	> 100 µM (inactive)	> 100 µM (inactive)	54 µM (inactive)
COc1ccc2c(CCNC(=O)/C=C/c3ccccc3)c(C(C)=O)[nH]c2c1[N+](=O)[O-]	20.3 µM (inactive)	6.89	4.31 µM (inactive)	18.8 µM (inactive)	18.3 µM (inactive)	7.73 µM (inactive)	5.69 µM (inactive)	3.78 µM (inactive)	6.12 µM (inactive)	3.35 µM (inactive)	10.1 µM (inactive)	5.98 µM (inactive)	3.87 µM (inactive)	48.6 µM (inactive)	10.2 µM (inactive)	31.3 µM (inactive)	–
O=S1(=O)NN=C(NCc2ccc(Cl)cc2)c2ccccc21	54.5 µM (inactive)	67	> 100 µM (inactive)	–	> 100 µM (inactive)	> 100 µM (inactive)	22.8 µM (inactive)	–	> 100 µM (inactive)	–	> 100 µM (inactive)	30.6 µM (inactive)	> 100 µM (inactive)	> 100 µM (inactive)	83.6 µM (inactive)	> 100 µM (inactive)	30.5 µM (inactive)
